Experimental data from ChEMBL document CHEMBL5370564, “Discovery of novel hybrids of mTOR inhibitor and NO donor as potential anti-tumor therapeutics” (Bioorg Med Chem, 2023).
Calls of active or inactive are those of the source. The rule behind the calls is not given here.

Assays:
[1] = target: Serine/threonine-protein kinase mTOR (Homo sapiens, UniProt P42345); experiment: Inhibition of mTOR (unknown origin) using Ulight-4E-BP1 peptide as substrate incubated for 45 mins in presence of ATP by Lance Ultra assay
MCF7 = experiment: Antiproliferative activity against human MCF7 cells assessed as inhibition of cell growth incubated for 70 hrs by CCK-8 assay; format: functional, cell-based; settings: MCF7, 70 h
[2] = Cytotoxicity against HUVEC assessed as inhibition of cell growth incubated for 70 hrs by CCK-8 assay; format: toxicity, cell-based; settings: human, HUVEC cells
HepG2 = experiment: Antiproliferative activity against human HepG2 cells assessed as inhibition of cell growth incubated for 70 hrs by CCK-8 assay; format: functional, cell-based; settings: HepG2, 70 h
HL-60 [3] = experiment: Induction of NO release in human HL-60 cells at 100 uM incubated for 12 hrs by griess reagent based colorimetric assay; format: functional, cell-based
HL-60 [4] = experiment: Antiproliferative activity against human HL-60 cells assessed as inhibition of cell growth incubated for 70 hrs by CCK-8 assay; format: functional, cell-based; settings: HL-60, 70 h
mTORC2 (Homo sapiens) = experiment: Inhibition of mTORC2 in human HL-60 cells assessed as reduction in Akt phosphorylation at S473 residue incubated for 24 hrs by Western blot assay; settings: dose 20-160 nM
mTORC1 (Homo sapiens) = experiment: Inhibition of mTORC1 in human HL-60 cells assessed as reduction in S6 phosphorylation at Ser235/236 residue incubated for 24 hrs by Western blot assay; settings: dose 20-160 nM

IC50 [1]	IC50 (MCF7)	IC50 (HepG2)	IC50 (HL-60 [4])	inhibition (mTORC2 (Homo sapiens))	inhibition (mTORC1 (Homo sapiens))	Compound	IC50 at 70 h [2]	Activity (HL-60 [3])
12.9 nM						Nc1nc2cc(-c3nn(CCCC(=O)OCCCCO[N+](=O)[O-])c4ncnc(N)c34)ccc2o1		
9.82 nM	> 10000 nM	> 10000 nM	7470 nM			Nc1nc2cc(-c3nn(CCCC(=O)OCCCO[N+](=O)[O-])c4ncnc(N)c34)ccc2o1	> 10000 nM	Active
6.71 nM	610 nM	1480 nM	70 nM			Nc1nc2cc(-c3nn(CCCC(=O)OCCCCOc4no[n+]([O-])c4S(=O)(=O)c4ccccc4)c4ncnc(N)c34)ccc2o1	> 10000 nM	Active
19.8 nM						Nc1nc2cc(-c3nn(CCCC(=O)OCCCCCCO[N+](=O)[O-])c4ncnc(N)c34)ccc2o1		
9.5 nM	> 10000 nM	> 10000 nM	> 10000 nM			Nc1nc2cc(-c3nn(CCCC(=O)OCCO[N+](=O)[O-])c4ncnc(N)c34)ccc2o1	> 10000 nM	
12.5 nM						Nc1nc2cc(-c3nn(CCCC(=O)OCCCCCO[N+](=O)[O-])c4ncnc(N)c34)ccc2o1		
3.31 nM	2700 nM	1050 nM	80 nM			Nc1nc2cc(-c3nn(CCCC(=O)OCCOc4no[n+]([O-])c4S(=O)(=O)c4ccccc4)c4ncnc(N)c34)ccc2o1	8940 nM	Active
6.39 nM	2410 nM	1320 nM	90 nM			Nc1nc2cc(-c3nn(CCCC(=O)OCCCOc4no[n+]([O-])c4S(=O)(=O)c4ccccc4)c4ncnc(N)c34)ccc2o1	9370 nM	Active

The remaining lines, values behind:

Compound	IC50 [1]	IC50 (MCF7)	IC50 (HepG2)	IC50 (HL-60 [4])	inhibition (mTORC2 (Homo sapiens))	inhibition (mTORC1 (Homo sapiens))	IC50 at 70 h [2]	Activity (HL-60 [3])
Nc1nc2cc(-c3nn(CCCC(=O)OCCCCCCOc4no[n+]([O-])c4S(=O)(=O)c4ccccc4)c4ncnc(N)c34)ccc2o1	11 nM							
Nc1nc2cc(-c3nn(CCCC(=O)OCCCCCOc4no[n+]([O-])c4S(=O)(=O)c4ccccc4)c4ncnc(N)c34)ccc2o1	9.52 nM	2720 nM	1430 nM	160 nM			> 10000 nM	Active
Nc1nc2cc(-c3nn(CCCC(=O)OCc4c(-c5ccccc5)no[n+]4[O-])c4ncnc(N)c34)ccc2o1	13.3 nM	> 10000 nM	> 10000 nM	7700 nM			> 10000 nM	Active
Nc1nc2cc(-c3nn(CCCC(=O)OCC#CCOc4no[n+]([O-])c4S(=O)(=O)c4ccccc4)c4ncnc(N)c34)ccc2o1	3.65 nM	880 nM	240 nM	20 nM	Dose-Dependent Effect	Dose-Dependent Effect	> 10000 nM	Active
Nc1nc2cc(-c3nn(CCCC(=O)OCCc4ccc(OCc5c(-c6ccccc6)no[n+]5[O-])cc4)c4ncnc(N)c34)ccc2o1	> 1000 nM							
CC(COc1no[n+]([O-])c1S(=O)(=O)c1ccccc1)NC(=O)CCCn1nc(-c2ccc3oc(N)nc3c2)c2c(N)ncnc21 (stereo unspecified)	5.96 nM	> 10000 nM	> 10000 nM	6410 nM			9590 nM	Active
Nc1nc2cc(-c3nn(CCCC(=O)OCCOCCOc4no[n+]([O-])c4S(=O)(=O)c4ccccc4)c4ncnc(N)c34)ccc2o1	7.02 nM	1390 nM	1430 nM	520 nM			> 10000 nM	Active
Nc1nc2cc(-c3nn(CCCC(=O)OCc4ccc(OCc5c(-c6ccccc6)no[n+]5[O-])cc4)c4ncnc(N)c34)ccc2o1	> 1000 nM							
Nc1nc2cc(-c3nn(CCCC(=O)NCCCOc4no[n+]([O-])c4S(=O)(=O)c4ccccc4)c4ncnc(N)c34)ccc2o1	4.2 nM	5180 nM	9960 nM	3500 nM			> 10000 nM	Active
Nc1nc2cc(-c3nn(CCCC(=O)NCCOc4no[n+]([O-])c4S(=O)(=O)c4ccccc4)c4ncnc(N)c34)ccc2o1	7.9 nM	6110 nM	> 10000 nM	2050 nM			> 10000 nM	Active
Nc1nc2cc(-c3nn(CCCC(=O)OCc4cccc(OCc5c(-c6ccccc6)no[n+]5[O-])c4)c4ncnc(N)c34)ccc2o1	337 nM							
Nc1nc2cc(-c3nn(CCCC(=O)OCc4ccccc4OCc4c(-c5ccccc5)no[n+]4[O-])c4ncnc(N)c34)ccc2o1	45.1 nM							
CC(C)n1nc(-c2ccc3oc(N)nc3c2)c2c(N)ncnc21 [SAPANISERTIB]		1230 nM	1730 nM	160 nM			> 10000 nM	inactive
